Experimental findings from patent US11365200B2, “ATF3 induction compounds” (TAIPEI MEDICAL UNIVERSITY, priority 2017, dated 2022) are described below.

Series [1] is described as follows: GTT and ITT assays in HFD-fed mice. The series is classed as in vivo. Conditions: HFD-fed WT mice, 0.5 mg/kg/day or 1 mg/kg/day. The procedure: Mice were fasted overnight for 16 h before receiving an intraperitoneal administration of 1.5 g glucose/kg body weight in saline. Blood samples were collected from the tail vein by tail snipping at 0, 15, 30, 45, 60, and 120 min, and plasma glucose and insulin levels were determined from those samples. An ITT was performed on mice after 1 h of fasting. Animals were intraperitoneally injected with 1.0 U insulin/kg body weight in saline. Blood samples were drawn from the tail vein at 0, 15, 30, 45 and 60 min for the measurement of plasma glucose levels. Plasma glucose levels in blood samples collected from tail veins were determined using a commercially available glucose meter (OneTouch Ultra blood glucose meter, LifeScan, Milpitas, Calif.). After the isolation of plasma from blood samples, insulin levels were determined by ELISA (Mercodia, Winston Salem, N.C.). To evaluate the degree of insulin resistance, values were calculated using the following homeostatic model of assessment of insulin resistance (HOMA-IR) formula: fasting glucose (in mg/dl)×fasting insulin (in mU/ml)/405.)

Series [2] is described as follows: Animal model for obesity (45% high fat diet). The class given is in vivo. Conditions: HFD-fed WT mice.
For the next series, the system named is ATF3. In words: ATF3 promoter luciferase platform (pGL4-ATF3 stable clones) for screening ATF3 inducers. The class given is cell-based. Conditions: pGL4-ATF3 transfected 3T3-L1 preadipocytes and H9C2 cardiomyocytes. The text has this:
The disclosure is directed to chromenone derivatives used as an ATF3 inducer compound and for treating and/or preventing obesity and obesity-related disorders. The compounds of this disclosure are obtained by: (1) transfecting a special DNA sequence of ATF3 (pGL4-ATF3) into 3T3-L1 preadipocytes and H9C2 cardiomyocytes; (2) using the stable clone as a platform for screening of drug for anti-obesity, anti-atherosclerosis, anti-cardiovascular disease and promotion of white-to-brown adipocyte transdifferentiation; and (3) using the platform for special drug screening. […] The invention further finds that these compounds have an inhibitory effect on obesity and obesity-induced diabetes and a facilitatory effect on white-to-brown adipocyte transdifferentiation, thereby increasing the body energy expenditure and suppressing diabetes. In addition, these compounds also can inhibit high blood pressure or hypoxia induced cardiomyopathy to increase heart function.
The invention uses a platform of ATF3 promoter luciferase to select AT3 inducer and confirms that these selected compounds can be used as anti-obesity, anti-diabetes and anti-heart disease drugs in view of the fact that these compounds have an inhibitory effect on obesity and obesity-induced diabetes and inhibition of high blood pressure or hypoxia induced cardiomyopathy, thereby increasing heart function. The platform of ATF3 promoter luciferase is created by transfecting a DNA sequence of ATF3 (pGL4-ATF3) into 3T3-L1 preadipocytes and H9C2 cardiomyocytes and using the stable clones as a platform for screening of drugs for anti-obesity, anti-atherosclerosis, anti-cardiovascular disease and promotion of white-to-brown adipocyte transdifferentiation. […]

Series [3] is described as follows: Echocardiography after transverse aortic banding (TAB) or sham surgery. Conditions: for EF / FS / IVSd / IVSs / LVIDd / LVIDs / LVPWd / LVPWs / Heart Rate: i.p. treatment twice a week, echocardiography, mean; for Heart Rate: in bpm (unit assumed). The series is classed as in vivo, mice. The procedure:
For echocardiography, mice were anesthetized with pentobarbital (40 mg/kg body weight, i.p.) and then measurements were taken with ultrasound equipment (ATL Philips IE33, Ultrasound Machine System, CA, U.S.A.) using a 15-MHz probe. The left ventricular posterior wall thickness (LVPW), inter-ventricular septum thickness (IVS), and left ventricular lumen diameter at both end-systolic and end-diastolic phases were measured digitally on the M-mode tracings and averaged for three cardiac cycles. Fractional shortening (FS) and ejection faction (EF) were then calculated.
Male mice (weighing 25-30 g) were anesthetized by intraperitoneal injection of chloral hydrate (125 mg/kg). The TAB procedure was performed according to the description by Hu et al. (Hu P, Zhang D, Swenson L, Chakrabarti G, Abel E D, and Litwin S E (2003) Minimally invasive aortic banding in mice: effects of altered cardiomyocyte insulin signaling during pressure overload. Am J Physiol Heart Circ Physiol 285:H1261-H1269). Echocardiography was performed at week 10 after TAB or sham surgery.
The experimental timeline for TAB and ST32da therapy was as follows. Mice were pre or post treated with intraperitoneal ST32da (0.2 mg/kg) twice a week from 4th to 10th week after TAB procedure. Echocardiographic measurements were performed on mice before (week 4) and after (week 10) ST32da, ST32db, ST32c therapy in both the procedure group and the nonprocedure group. Parameters, including interventricular septum thickness at diastole (IVSd) and systole (IVSs), left ventricular internal diameter at diastole (LVIDd) and systole (LVIDs), left ventricular posterior wall thickness at diastole (LVPWd) and systole (LVPWs), fractional shortening of left ventricle, ejection fraction of left ventricle (EF), and heart rate (HR) are shown.

Setting [4] is: TAB mice, week 4 to 10 after TAB.

For the molecule `C[C@@H]1Oc2c(c(=O)oc3c2ccc2ccccc23)[C@H]1C` [ST32da, (1R,2S)-1,2-dimethyl-1H-benzo[h]furo[3,2-c]chromen-11(2H)-one], in series [1] (FIG. 5D), the “glucose tolerance (glucose tolerance test)” value is “enhanced glucose tolerance”. Also, the “insulin sensitivity (insulin tolerance test)” value in series [1] (FIG. 5E) is “improved inulin sensitivity”. For the same molecule, the “HFD-induced obesity (percent of initial body weight)” value in series [2] (0.5 mg/kg/day or 1 mg/kg/day i.p., FIG. 5A left) is given as “could prevent HFD-induced obesity”. Also, in series [2] (0.5 mg/kg/day or 1 mg/kg/day i.p., FIG. 5B), the “adipose depot mass including iWAT, eWAT, mWAT, rWAT and BAT” value is listed as “decreased adipose depot mass”. The liver weights entry in series [2] (0.5 mg/kg/day or 1 mg/kg/day i.p., FIG. 5C) is “did not affect liver weights”. In the series on ATF3, the “ATF3 expression (screening for ATF3 inducers)” value (from here on “ATF3 expression”) is “induction of the above-mentioned ATF3 expression”. Moreover, in series [3] (TAB mice), the “TAB-induced LV dilatation” value is reported as “attenuated TAB-induced LV dilatation” and the contractility entry was “increased contractility”. In addition, in series [3] (setting [4]), the EF came to 75.000%, the FS is on record as 41.000%, the IVSd came to 1.200 mm and the IVSs is 1.600 mm. For the same molecule, in series [3] (setting [4]), the LVIDd is reported as 3.600 mm, the LVIDs is recorded as 2.500 mm, the LVPWd is 1.000 mm and the LVPWs came to 1.600 mm. In series [3] (setting [4]), the “Heart Rate” value was found to be 294.000. In series [3] (sham mice, week 4 to 10), this molecule showed an EF of 81.000%, an FS of 44.000%, an IVSd of 0.767 mm and an IVSs of 1.400 mm. In series [3] (sham mice, week 4 to 10), the LVIDd was found to be 3.833 mm, the LVIDs came out at 2.133 mm, the LVPWd is on record as 0.800 mm and the LVPWs is listed as 1.400 mm. Moreover, the “Heart Rate” value in series [3] (sham mice, week 4 to 10) came to 303.667.

As to `C[C@@H]1c2c(c3ccc4ccccc4c3oc2=O)O[C@@H]1C` [ST32db, (1R,2R)-1,2-dimethyl-1H-benzo[h]furo[3,2-c]chromen-11(2H)-one], the “HFD-induced obesity (body weight)” value in series [2] (1 or 10 mg/kg/day, FIG. 6A) is reported as “could prevent HFD-induced obesity”. The “ATF3 expression” value in the series with ATF3 was “induction of the above-mentioned ATF3 expression”. Besides, in series [3] (TAB mice), the “TAB-induced LV dilatation” value is recorded as “attenuated TAB-induced LV dilatation” and the contractility entry is reported as “increased contractility”. In series [3] (setting [4]), the EF worked out at 84.750%, the FS amounted to 48.250%, the IVSd is 1.050 mm and the IVSs is 1.750 mm. In series [3] (setting [4]), the LVIDd worked out at 3.600 mm, the LVIDs stood at 1.850 mm, the LVPWd came to 1.050 mm and the LVPWs is listed as 1.700 mm. For the same molecule, in series [3] (setting [4]), the “Heart Rate” value came out at 301.000. In series [3] (sham mice, week 4 to 10), the EF was 81.667%, the FS is 44.667%, the IVSd was 0.800 mm and the IVSs is 1.533 mm. In addition, in series [3] (sham mice, week 4 to 10), the LVIDd turned out to be 4.067 mm, the LVIDs was 2.233 mm, the LVPWd is reported as 0.800 mm and the LVPWs is 1.433 mm. For the same molecule, the “Heart Rate” value in series [3] (sham mice, week 4 to 10) is recorded as 318.500.

As for `CC1Cc2c(c3ccc4ccccc4c3oc2=O)O1` (stereo not shown) [ST32c, 2-methyl-1H-benzo[h]furo[3,2-c]chromen-11(2H)-one], in series [2] (0.5 mg/kg/day, FIG. 7), the “HFD-induced obesity (body weight)” value is on record as “could prevent HFD-induced obesity”. The “ATF3 expression” value in the series on ATF3 is reported as “induction of the above-mentioned ATF3 expression”. Further, in series [3] (TAB mice), the “TAB-induced LV dilatation” value is recorded as “attenuated TAB-induced LV dilatation” and the contractility result is “increased contractility”. Further, in series [3] (setting [4]), the EF amounted to 86.500%, the FS was determined as 54.500%, the IVSd worked out at 1.350 mm and the IVSs came to 1.950 mm. Besides, in series [3] (setting [4]), the LVIDd worked out at 3.350 mm, the LVIDs turned out to be 1.700 mm, the LVPWd was determined as 1.350 mm and the LVPWs came to 2.000 mm. Besides, the “Heart Rate” value in series [3] (setting [4]) is recorded as 340.000. In series [3] (sham mice, week 4 to 10), this molecule returned an EF of 79.000%, an FS of 41.333%, an IVSd of 0.800 mm and an IVSs of 1.367 mm. In series [3] (sham mice, week 4 to 10), this molecule registered an LVIDd of 3.733 mm, an LVIDs of 2.200 mm, an LVPWd of 0.800 mm and an LVPWs of 1.333 mm. The “Heart Rate” value in series [3] (sham mice, week 4 to 10) turned out to be 318.667.
